This is an account of results in US7223777B2, “Compounds for the management of aging-related and diabetic vascular complications, process for their preparation, therapeutic and cosmetic uses thereof” (Torrent Pharmaceuticals Ltd., priority 2001, dated 2007).

Structures are written as SMILES.

A short description of experiment [1]: Free radical scavenging activity on ABTS radical cation. It is filed as biochemical. The protocol:
This method measures the relative ability of free radical scavenging substances to scavenge the ABTS.^+ i.e. 2,2-Azino-bis-(3-ethyl benzo thiazoline-6-sulfonate) radical cation as compared to a standard amount of standard or free radical scavengers antioxidants. Incubation of ABTS with Peroxidase (metmyoglobin) and hydrogen peroxide results in the production of radical cation ABTS.^+. This species is blue-green in colour and can be detected at 730 nm. Antioxidants or free radical scavengers in the added sample that causes suppression of the color to a degree that is proportional to their concentration.
Preparation of Buffer Solutions: • a. Phosphate Citrate Buffer (pH 5.0): 48.5 ml of 0.1M citric acid with sufficient 0.2M disodium hydrogen phosphate to produce 100 ml. • b. Phosphate Buffer Saline (PBS): Dissolve 40.0 g of NaCl, 1.0 g of KCl, 1.0 g of KH2PO4 and 3.05 g of Na2HPO4 in 1 liter milli-Q water. Dilute 200 ml of above solution to 1 liter with milli-Q water (pH 7.4–7.6).
Preparation of ABTS Stock Solution (2 mM): • 1 tablet (10 mg) was dissolved in phosphate citrate buffer (pH 5.0) to give a 2 mM solution.
Preparation of Horse Radish Peroxidase Working Solution: • 0.1 mg was dissolved in 10 ml of phosphate buffer saline, 1 ml of this solution was diluted to 100 ml with PBS.
Preparation of Hydrogen Peroxide (1.08 mM) Solution: • 12 μl of Hydrogen Peroxide (30% w/v) was diluted to 100 ml with PBS.
Preparation of Drug Solutions: • 0.1 mM of stock solution of the drug was prepared which was serially diluted in PBS to get 0.05 mM, 0.025 mM and 0.0125 mM solutions.
Preparation of ABTS Radical Stock Solution: • To 2 ml of ABTS stock solution, 1 ml of horseradish Peroxidase working solution was added. • As soon as 2 ml of Hydrogen peroxide solution was added to the above solution, blue-green colour of the ABTS radicals appeared. This solution was incubated at 30° C. for 30 min in order to ensure the completion reaction. Make up the volume to 10 ml with PBS.
Preparation of Control Solution: • 900 μl of ABTS radical stock solution were added to an eppendorf tube. To it were added 100 μl of PBS solution.
Preparation of Test Solution: • 900 μl of ABTS radical stock solutions were added to different eppendorf tubes. To it were added 100 μl of various concentrations of drug solution.
Measurement of Absorbance (O.D): • The absorbance of control and test samples was recorded immediately at 730 nm taking PBS as blank.
Calculation: • The percent antioxidant activity was calculated according to the formula: % Antioxidant activity=100−[O.D of test sample/O.D of control×100]

Experiment [2] has as its system Maillard reaction in-vitro (BSA, ribose). Kind of experiment: Test for AGE inhibiting activity (Maillard reaction in-vitro, BSA + ribose, fluorescence). It is filed as biochemical, bovine. The settings on record: 37° C., 7 days. As for the experimental part:
The following method was used to determine the inhibitory effect of the test compounds on Maillard reaction in-vitro. This method is adopted from U.S. Pat. No. 5,514,676 and European Patent No. 0 339 496 A2.
A solution of Bovine Serum Albumin (BSA), ribose and test compound was prepared in Phosphate Buffer Saline (PBS, pH 7.4) so as to have final concentration of BSA and ribose at 10 mg/ml and 500 mM respectively. Addition of compound was done in aseptic conditions. Sodium azide (0.02%) was also added in this solution in order to prevent microbial growth. A separate tube containing BSA, ribose and sodium azide in the same concentration and buffer as above, but without any test compound, was also incubated as positive control. After incubation at 37° C. for 7 days, 40 micro liter sample from each tube was removed and diluted with PBS to have final concentration of BSA at 1 mg/ml. The fluorescence of all the samples was measured at Excitation Maximum of […] and the Emission Maximum of […] using f-MAX Fluorimeter (Molecular Device, USA). In order to study the effect of test compound on fluorescence, freshly prepared compound solution was mixed with previously incubated positive control (i.e. BSA+ribose), so as to achieve same concentration of all the components as that of test samples.
The percent inhibition of test compound was measured as follows:
[formula] Where F3=Fluorescence of BSA+ribose+compound, F4 is fluorescence of incubated (BSA+ribose)+freshly added test compound.

For the compound `O=C(C[n+]1cccc(-c2cc(COc3ccccc3)nn2-c2ccccc2)c1)c1cccs1.[Cl-]` [Compound 29, 1-(2-Thien-2′-yl-2-oxoethyl)-3-[(1-phenyl-3-phenoxymethyl)pyrazol-5-yl]pyridinium chloride], the “Relative Free Radical Scavenging Activity (%) on ABTS” value turned out to be 31.82% in experiment [1] (12.5 μM), 46.84% in experiment [1] (25.0 μM), 58.84% in experiment [1] (50.0 μM) and 55.22% in experiment [1] (100.0 μM). Also, the “% Inhibition (Day 7)” value in experiment [2] (5 mM compound) stood at 55.22%.

Turning to `Cc1cc(C)n(Cc2cc(-c3ccc[n+](CC(=O)c4cccs4)c3)n(-c3ccccn3)n2)n1.[Br-]` [Compound 6, 1-(2-Thien-2′-yl-2-oxoethyl)-3-[3{(3,5-dimethylpyrazol-1-yl)methyl-1-(2-pyridyl)}pyrazol-5-yl]pyridinium bromide], the “Relative Free Radical Scavenging Activity (%) on ABTS” value turned out to be 21.99% in experiment [1] (12.5 μM), 40.56% in experiment [1] (25.0 μM), 61.68% in experiment [1] (50.0 μM) and 81.04% in experiment [1] (100.0 μM). Besides, the “% Inhibition (Day 7)” value in experiment [2] (10 mM compound) was 66%.

Consider `O=C(C[n+]1cccc(-c2cc(-c3ccc[n+](CC(=O)c4cccs4)c3)[nH]n2)c1)c1cccs1.[Br-].[Br-]` [Compound 10, 3,5-Bis-[1-(2-thien-2′-yl-2-oxoethyl)-pyridinium-3-yl]-pyrazole dibromide], for which the “Relative Free Radical Scavenging Activity (%) on ABTS” value was 41.01% in experiment [1] (12.5 μM), 72.97% in experiment [1] (25.0 μM), 85.75% in experiment [1] (50.0 μM) and 87.04% in experiment [1] (100.0 μM). Besides, in experiment [2] (2.5 mM compound), the “% Inhibition (Day 7)” value was 75%.
